Patent publication US5468773A, “Methods for inhibiting bone loss and cartilage degradation using wortmannin and its analogs” (Eli Lilly and Company, priority 1994, dated 1995)
Where two headings read alike, the source gives them in different places. Ends that are not written are not given here.

What was measured:
ovariectomized rats = assay: bone mineral density and content of left proximal tibiae in ovariectomized rats (pQCT); assay type: in vivo, rat; details: 5 weeks, mean ± SD, n=6; for Bone Content: Sham 14 ± 1.5, OVX 10.4 ± 1.2; for Total Bone Mineral Density: Sham 590 ± 26, OVX 494 ± 29
Text: As summarized in Table 4, IIIa was also examined in 6 month old, ovariectomized rats. The bone mineral density (mg/cm^3) and bone mineral content (mg) of the left proximal tibiae were quantitated by computer tomography with a Norland 960 pQCT after daily dosing per os for 5 weeks, similar to the methods of Griffin et al., "Dual-energy X-ray Absorptiometry of the Rat: Accuracy, Precision and Measurement of Bone Loss", J. Bone Miner. Res 8, pp. 795-800 (1993). There were five groups of rats with n=6 per group: Sham, OVX, 0.001, 0.01, and 0.1 mg of IIIa/kg per os daily. In vivo data are presented for a 2 mm slice of the left proximal tibia at 5 weeks post-ovariectomy (mean ±standard deviation).

hen osteoclasts = assay: inhibition of in vitro bone resorption activity of hen osteoclasts; assay type: cell-based; details: for percent of control bone resorption: mean ± SE, n=3-6
Protocol: (§1) Control resorption in Table 2b corresponded to 12-62 Howship's lacunae per bone slice (n=4-4. mean ±SE).
As summarized in Table 3, the various analogs inhibited the resorption of hen osteoclasts with IIIA IC50=10 nM; IIIb, IC50=100 nM; and Ib, IC50=500 nM. Data presented are percent of control bone resorption (n=3-6, mean ±SE). Control levels of resorption varied from 26-49 mg bone resorbed between days 4-6 in culture.

[1] = system: osteoclastic bone resorption; assay: serum calcium in a rat model of secondary hyperparathyroidism (calcium deficient diet), 6 hr infusion; assay type: in vivo, Sprague Dawley rats; details: T=0 control 12 mg/dl, P<0.05
Text: Compounds were also examined in a rat model of secondary hyperparathyroidism according to similars method as set out in Thomas et al., Bone and Mineral, 4, pp. 73-82 (1988) in an effort to examine the ability of these compounds to inhibit osteoclastic bone resorption in vivo. Serum calcium levels (mg/dl) were previously shown to be dependant on bone resorption in Sprague Dawley rats (400 g males) maintained on a calcium deficient diet for 2 weeks. Serum calcium levels were examined colorimetrically (Sigma, St. Louis) before (T=O) and after 6 hr infusion (T=6) of compounds at a rate of 0.08 ml/hr through cannula inserted into the jugular vein of anesthesized rates. At T=0, the serum calcium of a control rat was 12 mg/dl.

rat osteoclasts = assay: inhibition of in vitro bone resorption activity of rat osteoclasts (Howship's lacunae per bone slice); assay type: cell-based; details: Osteoclast, Table 2b, mean ± SE, read-out: % Control Bone Resorption
Text: as §1

[2] = system: post-menopausal loss of bone; details: chronic treatment, clinical data; background; cited from earlier work
mammalian osteoclasts = details: background; cited from earlier work
[3] = Table 3, concentration 1 × 10^-6
[4] = Table 3, concentration 1 × 10^-7
[5] = Table 3, concentration 1 × 10^-8
[6] = Table 3, concentration 1 × 10^-9
[7] = 1 mg/kg/day infused via jugular vein
[8] = Osteoclast, read-out: % Control Bone Resorption

COC[C@H]1OC(=O)c2coc3c2[C@@]1(C)C1=C(C3=O)[C@@H]2CC[C@H](O)[C@@]2(C)C[C@H]1OC(C)=O [IIIa, 17α-Dihydrowortmannin]
Bone Content (ovariectomized rats; 0.001 mg/kg/day per os): 13.6 ± .6 mg | Total Bone Mineral Density (ovariectomized rats; 0.001 mg/kg/day per os): 528 ± 33 mg/cm3 | Bone Content (ovariectomized rats; 0.01 mg/kg/day per os): 13.5 ± 1 mg | Total Bone Mineral Density (ovariectomized rats; 0.01 mg/kg/day per os): 545 ± 26 mg/cm3 | Bone Content (ovariectomized rats; 0.1 mg/kg/day per os): 11.5 ± .7 mg | Total Bone Mineral Density (ovariectomized rats; 0.1 mg/kg/day per os): 494 ± 18 mg/cm3 | percent of control bone resorption (hen osteoclasts; [3]): 8 ± 1% | percent of control bone resorption (hen osteoclasts; [4]): 29 ± 4% | percent of control bone resorption (hen osteoclasts; [5]): 67 ± 5% | percent of control bone resorption (hen osteoclasts; [6]): 94 ± 5% | serum calcium after 6 hr of infusion [1, 7]: ~5 mg/dL

COC[C@H]1OC(=O)c2coc3c2[C@@]1(C)C1=C(C3=O)[C@@H]2CC[C@H](O)[C@@]2(C)CC1 [IIIb, 11-Desacetoxy-17α-dihydrowortmannin]
IC50 (hen osteoclasts; Osteoclast, read-out: IC50, resorption of hen osteoclasts): 0.1 µM | percent of control bone resorption (hen osteoclasts; [3]): 26 ± 3% | percent of control bone resorption (hen osteoclasts; [4]): 50 ± 4% | percent of control bone resorption (hen osteoclasts; [5]): 88 ± 19% | percent of control bone resorption (hen osteoclasts; [6]): 124 ± 23%

Cc1c2c(c(O)c3occ(C(=O)O)c13)[C@@H]1CCC(=O)[C@@]1(C)C=C2 [IVa]
percent of control bone resorption (hen osteoclasts; [3]): 105 ± 10% | percent of control bone resorption (hen osteoclasts; [4]): 110 ± 13% | percent of control bone resorption (hen osteoclasts; [5]): 99 ± 15% | percent of control bone resorption (hen osteoclasts; [6]): 93 ± 14%

COC[C@H]1OC(=O)c2coc3c2[C@@]1(C)C1=C(C3=O)[C@@H]2CCC(=O)[C@@]2(C)CC1 [Ib, 11-deacetoxywortmannin]
IC50 (hen osteoclasts; Osteoclast, hen osteoclasts, analogs, Example 2, read-out: IC50, resorption of hen osteoclasts): 0.5 µM | percent of control bone resorption (hen osteoclasts; [3]): 42 ± 3% | percent of control bone resorption (hen osteoclasts; [4]): 90 ± 15% | percent of control bone resorption (hen osteoclasts; [5]): 97 ± 17% | percent of control bone resorption (hen osteoclasts; [6]): 106 ± 10%

COC[C@H]1OC(=O)c2coc3c2[C@@]1(C)C1=C(C3=O)[C@@H]2CCC(=O)[C@@]2(C)C[C@H]1OC(C)=O [Wortmannin, wortmannin]
activity at 1 µM (rat osteoclasts; 1 × 10^-6 M): 3 ± 3% | activity at 0.1 µM (rat osteoclasts; 1 × 10^-7 M): 30 ± 6% | activity at 0.01 µM (rat osteoclasts; 1 × 10^-8 M): 32 ± 13% | activity at 0.001 µM (rat osteoclasts; 1 × 10^-9 M): 79 ± 22% | activity at 0.0001 µM (rat osteoclasts; 1 × 10^-10 M): 93 ± 11% | activity at 0.01 µM (hen osteoclasts; [8]): 90 ± 7% | activity at 0.05 µM (hen osteoclasts; [8]): 79 ± 2% | activity at 0.1 µM (hen osteoclasts; [8]): 58 ± 6% | activity at 0.5 µM (hen osteoclasts; [8]): 52 ± 3% | activity at 1 µM (hen osteoclasts; [8]): 54 ± 4% | activity at 5 µM (hen osteoclasts; [8]): 19 ± 1% | activity at 10 µM (hen osteoclasts; [8]): 23 ± 7% | IC50 (hen osteoclasts; Osteoclast, read-out: IC50, in vitro bone resorption activity): 0.3 µM | serum calcium after 6 hr of infusion [1, 7]: approximately 9 mg/dl

calcitonin: calcitonin has been used to treat osteoporotic patients (CGNLSTCMLGTYTQDFNKFHTFPQTAIGVGAP; ends and bridges not checked; cysteine pairing not given here; UniProt P01258 85-116, looked up)
arrest of post-menopausal loss of bone [2]: ineffective to arrest the post-menopausal loss of bone

salmon calcitonin [reference compound]
serum calcium after 6 hr of infusion ([1]; positive control, 12 ug/kg/day): 9 mg/dL | inhibition of resorption activity of mammalian osteoclasts (mammalian osteoclasts): directly inhibit the resorption activity of mammalian osteoclasts
